For nine molecules, Inhibition and IC50 results are on record in ChEMBL document CHEMBL1130456, “Nonpeptide glycoprotein IIb/IIIa inhibitors. 13. design and synthesis of an orally active pyrazolopiperazinone nonpeptide fibrinogen receptor antagonist” (Bioorg Med Chem Lett, 1997).

Where “and” joins values, the source holds several entries; their conditions need not be identical. Equal values may be shown once.

The subject of one assay is Rhesus monkey. The assay can be described thus: Inhibition of platelet aggregation at 6 hr in response to ADP and collagen in conscious rhesus monkey. It counts as functional, Cercopithecidae.
`CCCCS(=O)(=O)N[C@@H](CNC(=O)c1cc2n(n1)CCN(CCC1CCNCC1)C2=O)C(=O)O` returned an Inhibition greater than 90%.

Another assay is filed under the species Homo sapiens. Briefly: Concentration required for 50% inhibition of platelet aggregation of human gel-filtered platelets(GFP) in platelet aggregation assay. Type of assay: functional.
Take `O=C(N[C@@H](CNC(=O)c1cc2n(n1)CCN(CCC1CCNCC1)C2=O)C(=O)O)OCc1ccccc1`: it took 5 nM to reach half-maximal inhibition (IC50). `N[C@@H](CNC(=O)c1cc2n(n1)CCN(CCC1CCNCC1)C2=O)C(=O)O`: 45 nM corresponded to half-maximal inhibition (IC50).

Molecule `O=C(NCc1ccccc1)N[C@@H](CNC(=O)c1cc2n(n1)CCN(CCC1CCNCC1)C2=O)C(=O)O` displayed an IC50 of 22 nM. Same read-out and setting: in the case of `C=CCCS(=O)(=O)N[C@@H](CNC(=O)c1cc2n(n1)CCN(CCC1CCNCC1)C2=O)C(=O)O` it was 11 nM.

The molecule `CS(=O)(=O)N[C@@H](CNC(=O)c1cc2n(n1)CCN(CCC1CCNCC1)C2=O)C(=O)O` displayed an IC50 of 15 nM.

The molecule `CC(=O)N[C@@H](CNC(=O)c1cc2n(n1)CCN(CCC1CCNCC1)C2=O)C(=O)O` had an IC50 of 25 nM.

For the molecule `C#C[C@H](CC(=O)O)NC(=O)c1cc2n(n1)CCN(CCC1CCNCC1)C2=O`, the IC50 worked out at 120 nM. The molecule `C[C@H](CC(=O)O)NC(=O)c1cc2n(n1)CCN(CCC1CCNCC1)C2=O` gave an IC50 of 260 nM.

For a further assay, the system named is Rhesus monkey. Briefly: Inhibition of platelet aggregation at 24 hr in response to collagen in conscious rhesus monkey. It counts as functional, Cercopithecidae.
Regarding `CCCCS(=O)(=O)N[C@@H](CNC(=O)c1cc2n(n1)CCN(CCC1CCNCC1)C2=O)C(=O)O`, the Inhibition was 86% and 31%.
